Source: patent US10314806B2 (SICHUAN JIUZHANG BIOLOGICAL SCIENCE AND TECHNOLOGY CO., LTD., priority 2014, dated 2019)

Legend:
Lewis lung cancer = test: Inhibition of mice-transplanted tumor of Lewis lung cancer C57BL/6; format: in vivo; conditions: 12 times
Experimental: Animal C57BL/6 mice, body weight 13˜20 g, half male and half female.
(§1) Cell Lines Lewis cells were mice lung cancer cells, and grew adhering to the wall in RPMI-1640 media containing 10% calf serum, 100 U·ml^−1 penicillin, 100 μg·ml^−1 streptomycin, and were cultured in an incubator at 37° C. under 5% CO2, followed by changing the medium and subculturing every two or three days.
(§2) Viable cells were counted by trypan blue staining. Cell suspension was subcutaneously inoculated at the left forelimb armpit of mice at 0.2 ml/animal (containing about 1×10^7 cells), and after tumor grew to 1 cm×1 cm×1 cm, mice were used in experiment. Mice tumors were aseptically stripped, and washed with Hank's solution thrice, to remove blood, fat and necrotic tissues. Tumors were cut to broken pieces of 1 mm×1 mm×1 mm, and washed with Hank's solution twice, to which physiological saline was added at a ratio of (1 g:3 ml), and then ground in a glass homogenizer and filtered by 80-100 mesh sieve to make a suspension of single cell. Viable cells were counted by trypan blue staining.
(§3) On the second day after inoculation, a dosage of 0.2 ml·10 g^−1 was administrated to each group by peritoneal injection (ip) for successive 12 times, once a day. When the tumor weight in negative control group was more than 1.0 g (tumor volume being about 0.5 cm^3), the experiment was stopped, and mice were sacrificed by cervical vertebrae removal and weighed. Tumors were stripped to calculate inhibitory rate.

EMT-6 breast cancer = test: Inhibition of BABLc mice-transplanted tumor of EMT-6 breast cancer; format: in vivo; conditions: 9 days
Experimental: (1) Animal BABLc mice, ♀, body weight 17˜21 g
as §1, with “EMT-6 cell lines” for “Lewis cells”, “breast” for “lung”, “RPMI-1640 complete” for “RPMI-1640”, “serum, 1 mmol/L glutamine,” for “serum,”, “penicillin and” for “penicillin,”
as §2
as §3, with “intraperitoneal” for “peritoneal”, “9 days,” for “12 times,”, “negative” for “negative control”, “g(tumor” for “g (tumor”

[1] = test system: chemical liver injury (rat alcoholic fatty liver model); test: Protective effect on chemical liver injury (rat alcoholic fatty liver model); format: in vivo, rats; conditions: 30 days; for GSH / SOD: liver homogenate; for ALT / AST: serum
Experimental: Experimental grouping and dose design: Female SD rats were randomly divided to groups, 10 rats for each group, […], 70 mg·kg^−1, 85 mg·kg^−1, 100 mg·kg^−1, 120 mg·kg^−1, 140 mg·kg^−1, 160 mg·kg^−1, 180 mg·kg^−1, […], together with a negative control group and 50% ethanol model control group. Liver injury model was induced by ethanol (analytical pure).
Determination of ALT, AST, TG in serum of rats; Determination of SOD, MDA, reduced glutathione (GSH) in liver homogenate.
Statistics of experimental data: Statistical analysis of experimental data was performed using software package of SPSS 19.0 for windows.

`O=C(/C=C/c1ccc(O)c(O)c1)O[C@@H]1C[C@](O)(C(=O)O)C[C@@H](O)[C@H]1O` [Commercially available chlorogenic acid, chlorogenic acid, reference compound] was tested. Which Inhibitory rate (Lewis lung cancer; 1 mg·kg^−1 ip once a day) did it give?
The Inhibitory rate was 3.2%.

What about the Tumor weight (Lewis lung cancer; 1 mg·kg^−1 ip once a day) of the same compound?
The Tumor weight was 1.437 ± 0.466 g.

What about the Inhibitory rate (Lewis lung cancer; 5 mg·kg^−1 ip once a day) of the same compound?
Its Inhibitory rate is 6.6%.

What about the Tumor weight (Lewis lung cancer; 5 mg·kg^−1 ip once a day) of the same compound?
The Tumor weight was 1.386 ± 0.398 g.

What about the Inhibitory rate (Lewis lung cancer; 10 mg·kg^−1 ip once a day) of the same compound?
The Inhibitory rate was 23.5%.

And the Inhibitory rate (Lewis lung cancer; 20 mg·kg^−1 ip once a day)?
The Inhibitory rate was 32.9%.

What about the Tumor weight (Lewis lung cancer; 20 mg·kg^−1 ip once a day) of the same compound?
The Tumor weight was 0.996 ± 0.428 g.

And the Inhibitory rate (Lewis lung cancer; 30 mg·kg^−1 ip once a day)?
The Inhibitory rate was 32.5%.

What about the Tumor weight (Lewis lung cancer; 30 mg·kg^−1 ip once a day) of the same compound?
The Tumor weight was 1.001 ± 0.204 g.

And the Inhibitory rate (Lewis lung cancer; 40 mg·kg^−1 ip once a day)?
Its Inhibitory rate is 31.8%.

And the Tumor weight (Lewis lung cancer; 40 mg·kg^−1 ip once a day)?
The Tumor weight was 1.012 ± 0.369 g.

What about the Inhibitory rate (Lewis lung cancer; 50 mg·kg^−1 ip once a day) of the same compound?
Its Inhibitory rate is 25.3%.

What about the Inhibitory rate (Lewis lung cancer; 60 mg·kg^−1 ip once a day) of the same compound?
The Inhibitory rate was 21.6%.

And the Inhibitory rate (Lewis lung cancer; 70 mg·kg^−1 ip once a day)?
Its Inhibitory rate is 17.8%.

What about the Tumor weight (Lewis lung cancer; 70 mg·kg^−1 ip once a day) of the same compound?
The Tumor weight was 1.220 ± 0.237 g.

What about the Inhibitory rate (Lewis lung cancer; 80 mg·kg^−1 ip once a day) of the same compound?
The Inhibitory rate was 14.2%.

What about the Tumor weight (Lewis lung cancer; 80 mg·kg^−1 ip once a day) of the same compound?
Its Tumor weight is 1.273 ± 0.511 g.

And the Inhibitory rate (Lewis lung cancer; 90 mg·kg^−1 ip once a day)?
Its Inhibitory rate is 12.4%.

What about the Tumor weight (Lewis lung cancer; 90 mg·kg^−1 ip once a day) of the same compound?
Its Tumor weight is 1.300 ± 0.462 g.

And the Inhibitory rate (Lewis lung cancer; 100 mg·kg^−1 ip once a day)?
The Inhibitory rate was 8.6%.

What about the Tumor weight (Lewis lung cancer; 100 mg·kg^−1 ip once a day) of the same compound?
The Tumor weight was 1.356 ± 0.338 g.

And the Inhibitory rate (EMT-6 breast cancer; 1 mg·kg^−1 ip once a day)?
The Inhibitory rate was 3.13%.

And the Tumor weight (EMT-6 breast cancer; 1 mg·kg^−1 ip once a day)?
The Tumor weight was 1.299 ± 0.253 g.

And the Inhibitory rate (EMT-6 breast cancer; 5 mg·kg^−1 ip once a day)?
The Inhibitory rate was 4.18%.

What about the Tumor weight (EMT-6 breast cancer; 5 mg·kg^−1 ip once a day) of the same compound?
Its Tumor weight is 1.285 ± 0.324 g.

What about the Inhibitory rate (EMT-6 breast cancer; 10 mg·kg^−1 ip once a day) of the same compound?
Its Inhibitory rate is 5.00%.

And the Tumor weight (EMT-6 breast cancer; 10 mg·kg^−1 ip once a day)?
The Tumor weight was 1.274 ± 0.854 g.

What about the Inhibitory rate (EMT-6 breast cancer; 20 mg·kg^−1 ip once a day) of the same compound?
Its Inhibitory rate is 10.44%.

What about the Inhibitory rate (EMT-6 breast cancer; 30 mg·kg^−1 ip once a day) of the same compound?
Its Inhibitory rate is 11.63%.

And the Inhibitory rate (EMT-6 breast cancer; 40 mg·kg^−1 ip once a day)?
Its Inhibitory rate is 16.11%.

What about the Inhibitory rate (EMT-6 breast cancer; 50 mg·kg^−1 ip once a day) of the same compound?
Its Inhibitory rate is 16.85%.

And the Inhibitory rate (EMT-6 breast cancer; 60 mg·kg^−1 ip once a day)?
Its Inhibitory rate is 24.76%.

What about the Tumor weight (EMT-6 breast cancer; 60 mg·kg^−1 ip once a day) of the same compound?
Its Tumor weight is 1.009 ± 0.123 g.

And the Inhibitory rate (EMT-6 breast cancer; 70 mg·kg^−1 ip once a day)?
The Inhibitory rate was 6.49%.

And the Tumor weight (EMT-6 breast cancer; 70 mg·kg^−1 ip once a day)?
Its Tumor weight is 1.254 ± 0.514 g.

And the Inhibitory rate (EMT-6 breast cancer; 80 mg·kg^−1 ip once a day)?
The Inhibitory rate was 4.62%.

And the Tumor weight (EMT-6 breast cancer; 80 mg·kg^−1 ip once a day)?
The Tumor weight was 1.279 ± 0143 g.

What about the Inhibitory rate (EMT-6 breast cancer; 90 mg·kg^−1 ip once a day) of the same compound?
Its Inhibitory rate is 3.21%.

And the Tumor weight (EMT-6 breast cancer; 90 mg·kg^−1 ip once a day)?
Its Tumor weight is 1.298 ± 0.423 g.

What about the Inhibitory rate (EMT-6 breast cancer; 100 mg·kg^−1 ip once a day) of the same compound?
Its Inhibitory rate is 2.16%.

What about the Tumor weight (EMT-6 breast cancer; 100 mg·kg^−1 ip once a day) of the same compound?
The Tumor weight was 1.312 ± 0.087 g.

And the GSH ([1]; 10 mg·kg^−1 intragastric)?
The GSH was 12.57 ± 3.84 mg/g.

And the SOD ([1]; 10 mg·kg^−1 intragastric)?
The SOD was 26.15 ± 2.45 nmol/mg.

And the ALT ([1]; 10 mg·kg^−1 intragastric)?
The ALT was 58.67 ± 2.89 U/L.

What about the AST ([1]; 10 mg·kg^−1 intragastric) of the same compound?
Its AST is 194.12 ± 6.32 U/L.

And the GSH ([1]; 20 mg·kg^−1 intragastric)?
Its GSH is 13.62 ± 4.87 mg/g.

What about the SOD ([1]; 20 mg·kg^−1 intragastric) of the same compound?
Its SOD is 27.24 ± 2.78 nmol/mg.

And the ALT ([1]; 20 mg·kg^−1 intragastric)?
Its ALT is 57.41 ± 3.15 U/L.

And the AST ([1]; 20 mg·kg^−1 intragastric)?
Its AST is 193.89 ± 3.84 U/L.

And the GSH ([1]; 35 mg·kg^−1 intragastric)?
Its GSH is 14.83 ± 5.47 mg/g.

What about the SOD ([1]; 35 mg·kg^−1 intragastric) of the same compound?
Its SOD is 28.05 ± 1.45 nmol/mg.

And the ALT ([1]; 35 mg·kg^−1 intragastric)?
Its ALT is 56.84 ± 2.87 U/L.

And the AST ([1]; 35 mg·kg^−1 intragastric)?
The AST was 192.12 ± 5.12 U/L.

And the GSH ([1]; 50 mg·kg^−1 intragastric)?
The GSH was 15.57 ± 3.16 mg/g.

And the SOD ([1]; 50 mg·kg^−1 intragastric)?
Its SOD is 29.14 ± 3.78 nmol/mg.

And the ALT ([1]; 50 mg·kg^−1 intragastric)?
Its ALT is 56.88 ± 2.64 U/L.

What about the AST ([1]; 50 mg·kg^−1 intragastric) of the same compound?
Its AST is 190.56 ± 4.28 U/L.

And the GSH ([1]; 70 mg·kg^−1 intragastric)?
Its GSH is 16.88 ± 2.78 mg/g.

What about the SOD ([1]; 70 mg·kg^−1 intragastric) of the same compound?
Its SOD is 30.55 ± 2.05 nmol/mg.

And the ALT ([1]; 70 mg·kg^−1 intragastric)?
Its ALT is 55.14 ± 1.65 U/L.

What about the AST ([1]; 70 mg·kg^−1 intragastric) of the same compound?
Its AST is 190.88 ± 3.65 U/L.

And the GSH ([1]; 85 mg·kg^−1 intragastric)?
The GSH was 17.37 ± 3.87 mg/g.

What about the SOD ([1]; 85 mg·kg^−1 intragastric) of the same compound?
The SOD was 31.04 ± 2.58 nmol/mg.

And the ALT ([1]; 85 mg·kg^−1 intragastric)?
The ALT was 53.24 ± 6.11 U/L.

What about the AST ([1]; 85 mg·kg^−1 intragastric) of the same compound?
Its AST is 198.87 ± 2.78 U/L.

What about the GSH ([1]; 100 mg·kg^−1 intragastric) of the same compound?
Its GSH is 18.00 ± 3.21 mg/g.

And the SOD ([1]; 100 mg·kg^−1 intragastric)?
The SOD was 32.54 ± 3.47 nmol/mg.

What about the AST ([1]; 100 mg·kg^−1 intragastric) of the same compound?
The AST was 187.12 ± 4.57 U/L.

And the GSH ([1]; 120 mg·kg^−1 intragastric)?
The GSH was 18.24 ± 6.48 mg/g.

What about the SOD ([1]; 120 mg·kg^−1 intragastric) of the same compound?
The SOD was 33.65 ± 5.01 nmol/mg.

What about the AST ([1]; 120 mg·kg^−1 intragastric) of the same compound?
The AST was 184.25 ± 3.49 U/L.

And the GSH ([1]; 140 mg·kg^−1 intragastric)?
The GSH was 18.65 ± 3.48 mg/g.

What about the SOD ([1]; 140 mg·kg^−1 intragastric) of the same compound?
The SOD was 33.29 ± 2.68 nmol/mg.

And the AST ([1]; 140 mg·kg^−1 intragastric)?
The AST was 182.36 ± 3.87 U/L.

What about the GSH ([1]; 160 mg·kg^−1 intragastric) of the same compound?
The GSH was 17.55 ± 4.87 mg/g.

What about the SOD ([1]; 160 mg·kg^−1 intragastric) of the same compound?
The SOD was 33.12 ± 1.75 nmol/mg.

What about the AST ([1]; 160 mg·kg^−1 intragastric) of the same compound?
The AST was 180.15 ± 6.48 U/L.

And the GSH ([1]; 180 mg·kg^−1 intragastric)?
The GSH was 17.98 ± 5.94 mg/g.

And the SOD ([1]; 180 mg·kg^−1 intragastric)?
The SOD was 32.87 ± 2.16 nmol/mg.

What about the AST ([1]; 180 mg·kg^−1 intragastric) of the same compound?
Its AST is 179.54 ± 4.16 U/L.

And the GSH ([1]; 200 mg·kg^−1 intragastric)?
Its GSH is 16.49 ± 4.21 mg/g.

And the SOD ([1]; 200 mg·kg^−1 intragastric)?
The SOD was 31.11 ± 2.54 nmol/mg.

And the AST ([1]; 200 mg·kg^−1 intragastric)?
Its AST is 185.48 ± 3.94 U/L.

And the GSH ([1]; 220 mg·kg^−1 intragastric)?
The GSH was 15.31 ± 3.46 mg/g.

And the SOD ([1]; 220 mg·kg^−1 intragastric)?
The SOD was 28.15 ± 2.04 nmol/mg.

What about the AST ([1]; 220 mg·kg^−1 intragastric) of the same compound?
The AST was 188.34 ± 5.87 U/L.
